In general, Ki refers to a dissociation constant, usually derived from enzyme kinetics or from competition with a known ligand. A high value points to a looser hold on the target.

For one experiment, the target named is rat TAAR1 (Rattus norvegicus (Rat), UniProt Q923Y9). Put plainly: Radioligand binding assay on rat TAAR1. The settings on record: rat TAAR1, membranes of stably transfected HEK-293 cells; second value of cell mouse/rat. The procedure: (§1) Construction of TAAR Expression Plasmids and Stably Transfected Cell Lines
(§2) For the construction of expression plasmids the coding sequences of human, rat and mouse TAAR 1 were amplified from genomic DNA essentially as described by Lindemann et al.. The Expand High Fidelity PCR System (Roche Diagnostics) was used with 1.5 mM Mg^2+ and purified PCR products were cloned into pCR2.1-TOPO cloning vector (Invitrogen) following the instructions of the manufacturer. PCR products were subcloned into the pIRESneo2 vector (BD Clontech, Palo Alto, Calif.), and expression vectors were sequence verified before introduction in cell lines.
(§3) HEK293 cells (ATCC # CRL-1573) were cultured essentially as described by Lindemann et al. (2005). For the generation of stably transfected cell lines HEK293 cells were transfected with the pIRESneo2 expression plasmids containing the TAAR coding sequences (described above) with Lipofectamine 2000 (Invitrogen) according to the instructions of the manufacturer, and 24 hrs post transfection the culture medium was supplemented with 1 mg/ml G418 (Sigma, Buchs, Switzerland). After a culture period of about 10 d clones were isolated, expanded and tested for responsiveness to trace amines (all compounds purchased from Sigma) with the cAMP Biotrak Enzyme immunoassay (EIA) System (Amersham) following the non-acetylation EIA procedure provided by the manufacturer.
Radioligand Binding Assay on Rat TAAR1
(§4) Membrane Preparation and Radioligand Binding.
HEK-293 cells stably expressing rat TAAR1 were maintained at 37° C. and 5% CO2 in DMEM high glucose medium, containing fetal calf serum (10%, heat inactivated for 30 min at 56° C.), penicillin/streptomycin (1%), and 375 μg/ml geneticin (Gibco). Cells were released from culture flasks using trypsin/EDTA, harvested, washed twice with ice-cold PBS (without Ca^2+ and Mg^2+), pelleted at 1'000 rpm for 5 min at 4° C., frozen and stored at −80° C. Frozen pellets were suspended in 20 ml HEPES-NaOH (20 mM, pH 7.4) containing 10 mM EDTA and homogenized with a Polytron (PT 6000, Kinematica) at 14'000 rpm for 20 s. The homogenate was centrifuged at 48'000×g for 30 min at 4° C. Subsequently, the supernatant was removed and discarded, and the pellet resuspended in 20 ml HEPES-NaOH (20 mM, pH 7.4) containing 0.1 mM EDTA using the Polytron (20 s at 14'000 rpm). This procedure was repeated and the final pellet resuspended in HEPES-NaOH containing 0.1 mM EDTA and homogenized using the Polytron. Typically, aliquots of 2 ml membrane portions were stored at −80° C. With each new membrane batch the dissociation constant (Kd) was determined via a saturation curve. […] Nonspecific binding was defined as the amount of ^3[H]-(S)-4-[(ethyl-phenyl-amino)-methyl]-4,5-dihydro-oxazol-2-ylamine bound in the presence of 10 μM unlabeled ligand. All compounds were tested at a broad range of concentrations (10 pM to 10 μM) in duplicates. […] The 96 deep well plates were incubated for 1 hr at 4° C. Incubations were terminated by rapid filtration through Unifilter-96 plates (Packard Instrument Company) and glass filters GF/C (Perkin Elmer) presoaked for 1 hr in polyethylenimine (0.3%) and washed 3 times with 1 ml of cold binding buffer. After addition of 45 μl of Microscint 40 (PerkinElmer) the Unifilter-96 plate was sealed and after 1 hr the radioactivity counted using a TopCount Microplate Scintillation Counter (Packard Instrument Company).

Another experiment concerns the target mouse TAAR1 (Mus musculus (Mouse), UniProt Q923Y8). Put plainly: Radioligand binding assay on mouse TAAR1. The settings on record: mouse TAAR1, membranes of stably transfected HEK-293 cells; first value of cell mouse/rat. Here is the method:
as §1, §2, §3
Radioligand Binding Assay on Mouse TAAR1
as §4
HEK-293 cells stably expressing mouse TAAR1 were maintained at 37° C. and 5% CO2 in DMEM high glucose medium, containing fetal calf serum (10%, heat inactivated for 30 min at 56° C.), penicillin/streptomycin (1%), and 375 μg/ml geneticin (Gibco). Cells were released from culture flasks using trypsin/EDTA, harvested, washed twice with ice-cold PBS (without Ca^2+ and Mg^2+), pelleted at 1'000 rpm for 5 min at 4° C., frozen and stored at −80° C. Frozen pellets were suspended in 20 ml HEPES-NaOH (20 mM, pH 7.4) containing 10 mM EDTA and homogenized with a Polytron (PT 6000, Kinematica) at 14'000 rpm for 20 s. The homogenate was centrifuged at 48'000×g for 30 min at 4° C. Subsequently, the supernatant was removed and discarded, and the pellet resuspended in 20 ml HEPES-NaOH (20 mM, pH 7.4) containing 0.1 mM EDTA using the Polytron (20 s at 14'000 rpm). This procedure was repeated and the final pellet resuspended in HEPES-NaOH containing 0.1 mM EDTA and homogenized using the Polytron. Typically, aliquots of 2 ml membrane portions were stored at −80° C. With each new membrane batch the dissociation constant (Kd) was determined via a saturation curve. The TAAR1 radioligand ^3[H]-(S)-4-[(ethyl-phenyl-amino)-methyl]-4,5-dihydro-oxazol-2-ylamine (described in WO 2008/098857) was used at a concentration equal to the calculated Kd value, that was usually around 0.7 nM, resulting in the binding of approximately 0.5% of the radioligand and a specific binding representing approximately 70% of the total binding. Nonspecific binding was defined as the amount of ^3[H]-(S)-4-[(ethyl-phenyl-amino)-methyl]-4,5-dihydro-oxazol-2-ylamine bound in the presence of 10 μM unlabeled ligand. All compounds were tested at a broad range of concentrations ([…]) in duplicates. […] The 96 deep well plates were incubated for 1 hr at 4° C. Incubations were terminated by rapid filtration through Unifilter-96 plates (Packard Instrument Company) and glass filters GF/C (Perkin Elmer) presoaked for 1 hr in polyethylenimine (0.3%) and washed 3 times with 1 ml of cold binding buffer. After addition of 45 μl of Microscint 40 (PerkinElmer) the Unifilter-96 plate was sealed and after 1 hr the radioactivity counted using a TopCount Microplate Scintillation Counter (Packard Instrument Company).

mouse TAAR1, sequence (Q923Y8 whole entry): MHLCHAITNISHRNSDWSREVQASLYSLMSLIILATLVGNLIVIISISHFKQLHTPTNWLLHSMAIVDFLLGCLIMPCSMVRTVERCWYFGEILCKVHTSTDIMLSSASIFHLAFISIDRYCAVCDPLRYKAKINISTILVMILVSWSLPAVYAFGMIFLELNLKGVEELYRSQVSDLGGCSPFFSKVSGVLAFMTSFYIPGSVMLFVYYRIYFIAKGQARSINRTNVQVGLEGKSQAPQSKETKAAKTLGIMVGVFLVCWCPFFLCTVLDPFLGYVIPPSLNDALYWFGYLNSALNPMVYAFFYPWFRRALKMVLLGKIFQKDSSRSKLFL
rat TAAR1, sequence (Q923Y9 whole entry): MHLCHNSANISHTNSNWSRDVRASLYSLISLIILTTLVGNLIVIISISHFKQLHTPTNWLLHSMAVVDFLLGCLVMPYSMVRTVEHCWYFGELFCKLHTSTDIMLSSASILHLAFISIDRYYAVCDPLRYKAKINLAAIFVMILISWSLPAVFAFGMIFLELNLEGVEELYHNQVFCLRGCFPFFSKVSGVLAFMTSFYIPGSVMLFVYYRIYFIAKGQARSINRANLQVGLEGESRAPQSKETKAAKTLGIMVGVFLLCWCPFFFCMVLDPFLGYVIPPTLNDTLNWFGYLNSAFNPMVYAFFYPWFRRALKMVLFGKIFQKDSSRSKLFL

Take `Cc1cncc(Nc2ccc(CC[C@H]3COC(N)=N3)cc2)n1` [Example 43, {4-[2-((S)-2-Amino-4,5-dihydro-oxazol-4-yl)-ethyl]-phenyl}-(6-methyl-pyrazin-2-yl)-amine]: the Ki at rat TAAR1 amounted to 0.0046 µM; on mouse TAAR1, 0.107 µM.

For the compound `COc1nc(Cl)cc(Nc2ccc(CC[C@H]3COC(N)=N3)cc2)n1` [Example 44, {4-[2-((S)-2-Amino-4,5-dihydro-oxazol-4-yl)-ethyl]-phenyl}-(6-chloro-2-methoxy-pyrimidin-4-yl)-amine], the figures for the Ki at rat TAAR1 and at mouse TAAR1 were 0.0011 µM and 0.001 µM, respectively.

For `CSc1ccnc(Nc2ccc(CC[C@H]3COC(N)=N3)cc2)n1` [Example 45, {4-[2-((S)-2-Amino-4,5-dihydro-oxazol-4-yl)-ethyl]-phenyl}-(4-methylsulfanyl-pyrimidin-2-yl)-amine], the Ki came out at 0.0013 µM on rat TAAR1 and 0.0077 µM on mouse TAAR1.

For `Cc1cnc(Nc2ccc(CC[C@H]3COC(N)=N3)cc2)nc1` [Example 46, {4-[2-((S)-2-Amino-4,5-dihydro-oxazol-4-yl)-ethyl]-phenyl}-(5-methyl-pyrimidin-2-yl)-amine], the Ki was 0.0012 µM on rat TAAR1 and 0.0105 µM at mouse TAAR1.

Turning to `CC(=O)c1cnc(Nc2ccc(CC[C@H]3COC(N)=N3)cc2)nc1` [Example 47, 1-(2-{4-[2-((S)-2-Amino-4,5-dihydro-oxazol-4-yl)-ethyl]phenylamino}-pyrimidin-5-yl)-ethanone], the results for the Ki on rat TAAR1 and at mouse TAAR1 were 0.0024 µM and 0.0192 µM, respectively.

Turning to `Cc1ccnc(Nc2ccc(CC[C@H]3COC(N)=N3)cc2)n1` [Example 48, {4-[2-((S)-2-Amino-4,5-dihydro-oxazol-4-yl)-ethyl]-phenyl}-(4-methyl-pyrimidin-2-yl)-amine], the figures for the inhibition constant (Ki) on rat TAAR1 and at mouse TAAR1 were 0.0012 µM and 0.0166 µM, respectively.

Turning to `CCCc1cnc(Nc2ccc(CC[C@H]3COC(N)=N3)cc2)nc1` [Example 49, {4-[2-((8)-2-Amino-4,5-dihydro-oxazol-4-yl)-ethyl]-phenyl}-(5-propyl-pyrimidin-2-yl)-amine], the Ki on rat TAAR1 was 0.0006 µM; on mouse TAAR1, 0.0007 µM.

For the compound `NC1=N[C@@H](CCc2ccc(Nc3cnc(Cl)nc3)cc2)CO1` [Example 50, {4-[2-((S)-2-Amino-4,5-dihydro-oxazol-4-yl)-ethyl]-phenyl}-(2-chloro-pyrimidin-5-yl)-amine], the Ki on rat TAAR1 came out at 0.0006 µM; at mouse TAAR1 it was 0.0218 µM.

`NC1=N[C@@H](CCc2ccc(Nc3ncc(Br)cn3)cc2)CO1` [Example 51, {4-[2-((S)-2-Amino-4,5-dihydro-oxazol-4-yl)-ethyl]-phenyl}-(5-bromo-pyrimidin-2-yl)-amine]: the Ki at rat TAAR1 came out at 0.0004 µM; at mouse TAAR1 it was 0.0006 µM.

Turning to `C[C@@H]1OC(N)=N[C@H]1CCc1ccc(Nc2ncc(Cl)cn2)cc1` [Example 52, {4-[2-((4S,5S)-2-Amino-5-methyl-4,5-dihydro-oxazol-4-yl)-ethyl]-phenyl}-(5-chloro-pyrimidin-2-yl)-amine], the Ki came to 0.0006 µM at rat TAAR1 and 0.0046 µM at mouse TAAR1.

In the case of `CCC(=O)c1cnc(Nc2ccc(CC[C@H]3COC(N)=N3)cc2)nc1` [Example 53, (S)-1-(2-(4-(2-(2-Amino-4,5-dihydrooxazol-4-yl)ethyl)phenylamino)pyrimidin-5-yl)propan-1-one], the Ki is 0.0265 µM at rat TAAR1 and 0.113 µM at mouse TAAR1.

Regarding `NC1=N[C@@H](CCc2ccc(Nc3ncc(C4CC4)cn3)cc2)CO1` [Example 54, {4-[2-((S)-2-Amino-4,5-dihydro-oxazol-4-yl)-ethyl]-phenyl}-(5-cyclopropyl-pyrimidin-2-yl)-amine], the Ki at rat TAAR1 amounted to 0.0004 µM; at mouse TAAR1, 0.0003 µM.

Take `CCOc1cnc(Nc2ccc(CC[C@H]3COC(N)=N3)cc2)nc1` [Example 55, {4-[2-((S)-2-Amino-4,5-dihydro-oxazol-4-yl)-ethyl]-phenyl}-(5-ethoxy-pyrimidin-2-yl)-amine]: the inhibitory constant (Ki) amounted to 0.0083 µM at rat TAAR1 and 0.005 µM at mouse TAAR1.

Take `NC1=N[C@@H](CCc2ccc(Nc3ncc(C(F)(F)F)cn3)cc2)CO1` [Example 56, (S)-4-(4-(5-(Trifluoromethyl)pyrimidin-2-ylamino)phenethyl)-4,5-dihydrooxazol-2-amine]: the values for the Ki on rat TAAR1 and at mouse TAAR1 were 0.0039 µM and 0.0019 µM, respectively.

Consider `CC(C)(C)c1cnc(Nc2ccc(CC[C@H]3COC(N)=N3)cc2)nc1` [Example 57, (S)-4-(4-(5-tert-Butylpyrimidin-2-ylamino)phenethyl)-4,5-dihydrooxazol-2-amine], for which the Ki at rat TAAR1 amounted to 0.0004 µM; at mouse TAAR1, 0.0005 µM.

With `CCC(CC)c1cnc(Nc2ccc(CC[C@H]3COC(N)=N3)cc2)nc1` [Example 58, (S)-4-(4-(5-(Pentan-3-yl)pyrimidin-2-ylamino)phenethyl)-4,5-dihydrooxazol-2-amine], the Ki is 0.0001 µM on rat TAAR1 and 0.0002 µM at mouse TAAR1.

Take `N#Cc1cnc(Nc2ccc(CC[C@H]3COC(N)=N3)cc2)nc1` [Example 59, 2-{4-[2-((S)-2-Amino-4,5-dihydro-oxazol-4-yl)-ethyl]-phenylamino}-pyrimidine-5-carbonitrile]: the Ki at rat TAAR1 turned out to be 0.0008 µM; on mouse TAAR1, 0.008 µM.

Regarding `NC1=N[C@@H](CCc2ccc(Nc3ncc(C4CCC4)cn3)cc2)CO1` [Example 60, (S)-4-(4-(5-Cyclobutylpyrimidin-2-ylamino)phenethyl)-4,5-dihydrooxazol-2-amine], the Ki worked out at 0.0002 µM on rat TAAR1 and 0.0003 µM at mouse TAAR1.

On to `CC(C)c1cnc(Nc2ccc(CC[C@H]3COC(N)=N3)cc2)nc1` [Example 61, (S)-4-(4-(5-Isopropylpyrimidin-2-ylamino)phenethyl)-4,5-dihydrooxazol-2-amine], for which the Ki on rat TAAR1 stood at 0.0002 µM; on mouse TAAR1, 0.0007 µM.

Regarding `NC1=N[C@@H](CCc2ccc(NC(c3ccc(Br)cn3)C(F)(F)F)cc2)CO1` (stereo partly drawn) [Example 62, (S)-4-(2-{4-[1-(5-Bromo-pyridin-2-yl)-2,2,2-trifluoro-ethylamino]-phenyl}-ethyl)-4,5-dihydro-oxazol-2-ylamine], the inhibition constant (Ki) is 0.0132 µM on rat TAAR1 and 0.0623 µM on mouse TAAR1.

Values taken from US8673950B2, “Dihydrooxazol-2-amine derivatives” (Hoffmann-LaRoche Inc., priority 2010, dated 2014).
